Measurements reported in ChEMBL document CHEMBL3826966, “A chromatography-free isolation of rohitukine from leaves of Dysoxylum binectariferum: Evaluation for in vitro cytotoxicity, Cdk inhibition and physicochemical properties” (Bioorg Med Chem Lett, 2016).
In brackets after ≈: the same amount, converted by molar mass.

Legend:
[1] = test system: MAP3K9; assay: Inhibition of human MLK1 (132 to 413 residues) assessed as remaining enzyme activity at 50 uM after 30 mins by 33P-ATP filter-binding assay
[2] = target: MAP kinase-activated protein kinase 2 (Homo sapiens) (UniProt P49137); assay: Inhibition of human MAPKAPK2 assessed as remaining enzyme activity at 50 uM after 30 mins by 33P-ATP filter-binding assay
[3] = target: Misshapen-like kinase 1 (Homo sapiens) (UniProt Q8N4C8); assay: Inhibition of human MINK1 (1 to 320 residues) assessed as remaining enzyme activity at 50 uM after 30 mins by 33P-ATP filter-binding assay
[4] = target: Eukaryotic elongation factor 2 kinase (Homo sapiens) (UniProt O00418); assay: Inhibition of human EF2K (2 to 725 residues) assessed as remaining enzyme activity at 50 uM after 30 mins by 33P-ATP filter-binding assay
[5] = target: Tyrosine-protein kinase Lck (Homo sapiens) (UniProt P06239); assay: Inhibition of human LCK (2 to 509 residues) assessed as remaining enzyme activity at 50 uM after 30 mins by 33P-ATP filter-binding assay
[6] = test system: T47D; assay: Cytotoxicity against human T47D cells assessed as cell growth inhibition after 48 hrs by MTT assay; assay type: functional
[7] = target: Serine/threonine-protein kinase PAK 6 (Homo sapiens) (UniProt Q9NQU5); assay: Inhibition of human PAK6 (2 to 681 residues) assessed as remaining enzyme activity at 50 uM after 30 mins by 33P-ATP filter-binding assay
[8] = Cytotoxicity against human BxPC3 cells assessed as cell growth inhibition after 48 hrs by MTT assay; assay type: functional; details: BXPC-3, 48 h
[9] = target: Serine/threonine-protein kinase pim-3 (Homo sapiens) (UniProt Q86V86); assay: Inhibition of human PIM3 (2 to 326 residues) assessed as remaining enzyme activity at 50 uM after 30 mins by 33P-ATP filter-binding assay
[10] = Stability in pH 1.2 buffer at 120 ug/ml after 8 hrs by RP-HPLC analysis; assay type: physicochemical; details: pH 1.2, 8 h
[11] = target: Serine/threonine-protein kinase BRSK2 (Homo sapiens) (UniProt Q8IWQ3); assay: Inhibition of human BRSK2 (2 to 674residues) assessed as remaining enzyme activity at 50 uM after 30 mins by 33P-ATP filter-binding assay
Serine/threonine-protein kinase BRSK2 (Homo sapiens), sequence (Q8IWQ3 whole entry): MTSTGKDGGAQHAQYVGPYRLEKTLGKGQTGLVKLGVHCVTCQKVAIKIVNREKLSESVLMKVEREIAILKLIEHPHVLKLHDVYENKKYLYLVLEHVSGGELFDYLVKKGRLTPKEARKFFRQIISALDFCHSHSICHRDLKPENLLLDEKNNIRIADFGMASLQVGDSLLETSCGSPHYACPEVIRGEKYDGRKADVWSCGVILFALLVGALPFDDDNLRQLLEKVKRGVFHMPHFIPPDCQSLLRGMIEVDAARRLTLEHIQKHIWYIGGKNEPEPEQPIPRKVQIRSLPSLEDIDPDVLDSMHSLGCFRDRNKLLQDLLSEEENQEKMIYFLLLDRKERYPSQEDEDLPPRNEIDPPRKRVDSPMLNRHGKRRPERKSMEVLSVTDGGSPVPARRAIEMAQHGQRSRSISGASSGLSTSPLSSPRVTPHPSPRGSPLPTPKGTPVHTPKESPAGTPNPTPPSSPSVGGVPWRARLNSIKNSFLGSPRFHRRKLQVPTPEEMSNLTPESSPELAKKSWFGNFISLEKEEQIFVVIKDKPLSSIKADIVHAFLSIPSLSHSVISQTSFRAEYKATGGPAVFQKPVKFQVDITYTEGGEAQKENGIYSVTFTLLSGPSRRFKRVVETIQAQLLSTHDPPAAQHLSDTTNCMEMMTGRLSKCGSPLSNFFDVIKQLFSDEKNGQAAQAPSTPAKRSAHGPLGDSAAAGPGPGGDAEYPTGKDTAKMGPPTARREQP

[12] = Cell cycle arrest in human HL60 cells assessed as accumulation at S phase at 5 uM (reference value: 36 %); assay type: functional, cell-based; details: HL-60
[13] = test system: K562; assay: Cytotoxicity against human K562 cells assessed as cell growth inhibition after 48 hrs by MTT assay; assay type: functional; details: K562, 48 h
[14] = Cell cycle arrest in human HL60 cells assessed as accumulation at S phase at 1 uM (reference value: 36 %); assay type: functional, cell-based; details: HL-60
[15] = target: Homeodomain-interacting protein kinase 2 (Homo sapiens) (UniProt Q9H2X6); assay: Inhibition of human HIPK2 (165 to 564 residues) assessed as remaining enzyme activity at 50 uM after 30 mins by 33P-ATP filter-binding assay
[16] = target: CDK9/cyclin T1 (Homo sapiens) (UniProt O60563+P50750); assay: Inhibition of human Cdk9/T1 using YSPTSPSYSPTSPSYSPTSPKKK peptide as substrate at 0.5 uM after 30 mins by 33P-ATP filter-binding assay; assay type: protein-complex assay
[17] = target: Phosphorylase kinase (Homo sapiens) (UniProt P15735+P46020+P46019+Q93100+Q16816); assay: Inhibition of human PHK assessed as remaining enzyme activity at 50 uM after 30 mins by 33P-ATP filter-binding assay; assay type: protein-complex assay
[18] = target: Serine/threonine-protein kinase OSR1 (Homo sapiens) (UniProt O95747); assay: Inhibition of human OSR1 assessed as remaining enzyme activity at 50 uM after 30 mins by 33P-ATP filter-binding assay
[19] = Thermodynamic equilibrium solubility in PBS buffer at 120 ug/ml at pH 7.4 by HPLC analysis; assay type: physicochemical; details: read-out: Therm_solubility
[20] = Cytotoxicity against HEK293 cells assessed as cell growth inhibition after 48 hrs by MTT assay; assay type: cell-based; details: human
[21] = target: Protein kinase C zeta type (Homo sapiens) (UniProt Q05513); assay: Inhibition of human PKCzeta (2 to 592 residues) assessed as remaining enzyme activity at 50 uM after 30 mins by 33P-ATP filter-binding assay
[22] = target: Mitogen-activated protein kinase 15 (Homo sapiens) (UniProt Q8TD08); assay: Inhibition of human ERK8 (2 to 544 residues) assessed as remaining enzyme activity at 50 uM after 30 mins by 33P-ATP filter-binding assay
[23] = target: Mitogen-activated protein kinase 9 (Homo sapiens) (UniProt P45984); assay: Inhibition of human JNK2 (1 to 424 residues) assessed as remaining enzyme activity at 50 uM after 30 mins by 33P-ATP filter-binding assay
Mitogen-activated protein kinase 9 (Homo sapiens), sequence (P45984 whole entry, looked up, the tested form may be a part): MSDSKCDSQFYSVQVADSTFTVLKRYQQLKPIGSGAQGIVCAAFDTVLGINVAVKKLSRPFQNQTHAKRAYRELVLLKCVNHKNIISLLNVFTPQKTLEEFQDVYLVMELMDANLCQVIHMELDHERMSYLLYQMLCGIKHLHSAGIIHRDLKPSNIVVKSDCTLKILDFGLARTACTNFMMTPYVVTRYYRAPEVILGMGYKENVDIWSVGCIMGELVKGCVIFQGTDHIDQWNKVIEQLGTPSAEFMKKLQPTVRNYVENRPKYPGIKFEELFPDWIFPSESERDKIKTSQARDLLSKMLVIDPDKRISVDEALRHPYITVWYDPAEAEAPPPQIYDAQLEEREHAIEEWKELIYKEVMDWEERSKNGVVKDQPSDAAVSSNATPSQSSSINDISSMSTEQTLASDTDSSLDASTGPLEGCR

[24] = target: Inhibitor of nuclear factor kappa-B kinase subunit epsilon (Homo sapiens) (UniProt Q14164); assay: Inhibition of human IKKe (1 to 716 residues) assessed as remaining enzyme activity at 50 uM after 30 mins by 33P-ATP filter-binding assay
Inhibitor of nuclear factor kappa-B kinase subunit epsilon (Homo sapiens), sequence (Q14164 whole entry, the tested form may be a part): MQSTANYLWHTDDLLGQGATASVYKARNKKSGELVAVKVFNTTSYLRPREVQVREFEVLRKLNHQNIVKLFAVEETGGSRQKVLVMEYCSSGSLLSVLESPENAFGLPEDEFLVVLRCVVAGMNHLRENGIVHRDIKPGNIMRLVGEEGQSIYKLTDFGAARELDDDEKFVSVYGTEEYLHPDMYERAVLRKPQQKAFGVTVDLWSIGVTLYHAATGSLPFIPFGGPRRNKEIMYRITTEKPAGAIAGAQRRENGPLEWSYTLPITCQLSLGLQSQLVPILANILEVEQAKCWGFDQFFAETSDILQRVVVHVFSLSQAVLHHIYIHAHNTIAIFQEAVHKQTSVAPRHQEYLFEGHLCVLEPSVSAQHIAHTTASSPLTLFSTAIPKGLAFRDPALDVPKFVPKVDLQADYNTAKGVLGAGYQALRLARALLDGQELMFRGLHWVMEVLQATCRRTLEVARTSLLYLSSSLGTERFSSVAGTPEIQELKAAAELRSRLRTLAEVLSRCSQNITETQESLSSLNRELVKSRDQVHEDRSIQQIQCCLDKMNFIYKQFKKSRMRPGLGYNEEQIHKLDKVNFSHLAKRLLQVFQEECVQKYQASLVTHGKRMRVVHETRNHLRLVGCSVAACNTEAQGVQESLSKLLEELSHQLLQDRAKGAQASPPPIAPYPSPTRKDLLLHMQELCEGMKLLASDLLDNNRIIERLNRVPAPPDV

[25] = target: Myosin light chain kinase, smooth muscle (Homo sapiens) (UniProt Q15746); assay: Inhibition of human SmMLCK (475 to 838 residues) assessed as remaining enzyme activity at 50 uM after 30 mins by 33P-ATP filter-binding assay
Myosin light chain kinase, smooth muscle (Homo sapiens), sequence (Q15746 whole entry, the tested form may be a part): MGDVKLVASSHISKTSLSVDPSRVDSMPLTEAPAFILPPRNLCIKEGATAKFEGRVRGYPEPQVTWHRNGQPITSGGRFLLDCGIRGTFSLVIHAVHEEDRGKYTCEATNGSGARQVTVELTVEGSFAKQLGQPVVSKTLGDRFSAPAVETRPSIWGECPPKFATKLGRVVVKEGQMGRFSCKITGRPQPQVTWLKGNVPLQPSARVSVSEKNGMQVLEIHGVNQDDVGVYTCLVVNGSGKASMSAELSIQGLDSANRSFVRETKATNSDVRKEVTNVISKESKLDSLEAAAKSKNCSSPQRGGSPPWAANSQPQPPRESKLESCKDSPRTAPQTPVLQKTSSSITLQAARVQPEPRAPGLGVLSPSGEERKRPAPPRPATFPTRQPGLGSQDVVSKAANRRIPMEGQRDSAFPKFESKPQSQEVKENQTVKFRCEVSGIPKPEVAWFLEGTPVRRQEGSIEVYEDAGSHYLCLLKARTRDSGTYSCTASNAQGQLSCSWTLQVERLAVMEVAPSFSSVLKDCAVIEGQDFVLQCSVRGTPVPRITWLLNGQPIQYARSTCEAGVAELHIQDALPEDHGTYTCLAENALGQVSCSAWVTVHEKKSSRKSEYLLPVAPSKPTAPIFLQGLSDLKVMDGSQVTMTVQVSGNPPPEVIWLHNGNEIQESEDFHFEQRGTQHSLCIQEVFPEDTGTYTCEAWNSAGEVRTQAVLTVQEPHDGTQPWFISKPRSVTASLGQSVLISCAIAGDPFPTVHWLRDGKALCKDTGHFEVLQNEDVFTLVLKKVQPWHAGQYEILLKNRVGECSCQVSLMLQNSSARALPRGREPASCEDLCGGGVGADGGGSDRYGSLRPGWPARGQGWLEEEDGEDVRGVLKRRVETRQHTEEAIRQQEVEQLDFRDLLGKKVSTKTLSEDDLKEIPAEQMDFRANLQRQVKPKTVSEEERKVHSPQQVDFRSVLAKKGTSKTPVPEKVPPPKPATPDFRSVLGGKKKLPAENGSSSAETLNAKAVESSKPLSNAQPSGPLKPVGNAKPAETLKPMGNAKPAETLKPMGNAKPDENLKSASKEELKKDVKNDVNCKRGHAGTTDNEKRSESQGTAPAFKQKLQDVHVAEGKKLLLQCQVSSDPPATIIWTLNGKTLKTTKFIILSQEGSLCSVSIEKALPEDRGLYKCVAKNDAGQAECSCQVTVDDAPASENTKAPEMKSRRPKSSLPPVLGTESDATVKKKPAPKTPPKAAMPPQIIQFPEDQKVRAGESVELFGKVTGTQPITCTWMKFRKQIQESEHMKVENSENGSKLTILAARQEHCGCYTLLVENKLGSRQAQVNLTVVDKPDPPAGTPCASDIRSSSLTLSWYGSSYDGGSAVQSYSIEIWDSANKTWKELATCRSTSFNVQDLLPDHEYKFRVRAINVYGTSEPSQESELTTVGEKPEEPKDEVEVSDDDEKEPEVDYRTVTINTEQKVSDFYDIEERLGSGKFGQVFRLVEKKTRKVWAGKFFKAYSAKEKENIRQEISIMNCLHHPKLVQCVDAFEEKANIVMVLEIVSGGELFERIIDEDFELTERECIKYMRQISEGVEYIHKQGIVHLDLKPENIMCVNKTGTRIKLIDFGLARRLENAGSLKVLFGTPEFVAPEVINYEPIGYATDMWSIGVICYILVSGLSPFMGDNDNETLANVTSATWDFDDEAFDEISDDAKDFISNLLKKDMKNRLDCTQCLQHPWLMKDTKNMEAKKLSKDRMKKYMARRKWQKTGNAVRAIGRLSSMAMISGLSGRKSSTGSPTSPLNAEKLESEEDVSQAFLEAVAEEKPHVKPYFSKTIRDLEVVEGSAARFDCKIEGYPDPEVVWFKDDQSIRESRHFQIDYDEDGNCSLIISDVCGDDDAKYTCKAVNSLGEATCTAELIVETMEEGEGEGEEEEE

[26] = target: Aurora kinase B (Homo sapiens) (UniProt Q96GD4); assay: Inhibition of human Aurora B (1 to 344 residues) assessed as remaining enzyme activity at 50 uM after 30 mins by 33P-ATP filter-binding assay
[27] = target: Ribosomal protein S6 kinase beta-1 (Homo sapiens) (UniProt P23443); assay: Inhibition of human S6K1 assessed as remaining enzyme activity at 50 uM after 30 mins by 33P-ATP filter-binding assay
[28] = target: Dual specificity tyrosine-phosphorylation-regulated kinase 1A (Homo sapiens) (UniProt Q13627); assay: Inhibition of human DYRK1A (1 to 502 residues) assessed as remaining enzyme activity at 50 uM after 30 mins by 33P-ATP filter-binding assay
[29] = target: Insulin receptor-related protein (Homo sapiens) (UniProt P14616); assay: Inhibition of human IRR (944 to 1236 residues) assessed as remaining enzyme activity at 50 uM after 30 mins by 33P-ATP filter-binding assay
[30] = target: Ephrin type-A receptor 2 (Homo sapiens) (UniProt P29317); assay: Inhibition of human EPHA2 (591 to 976 residues) assessed as remaining enzyme activity at 50 uM after 30 mins by 33P-ATP filter-binding assay
[31] = target: Fibroblast growth factor receptor 1 (Homo sapiens) (UniProt P11362); assay: Inhibition of human FGFR1 (400 to 820 residues) assessed as remaining enzyme activity at 50 uM after 30 mins by 33P-ATP filter-binding assay
Fibroblast growth factor receptor 1 (Homo sapiens), sequence (P11362 22-822 limits assumed): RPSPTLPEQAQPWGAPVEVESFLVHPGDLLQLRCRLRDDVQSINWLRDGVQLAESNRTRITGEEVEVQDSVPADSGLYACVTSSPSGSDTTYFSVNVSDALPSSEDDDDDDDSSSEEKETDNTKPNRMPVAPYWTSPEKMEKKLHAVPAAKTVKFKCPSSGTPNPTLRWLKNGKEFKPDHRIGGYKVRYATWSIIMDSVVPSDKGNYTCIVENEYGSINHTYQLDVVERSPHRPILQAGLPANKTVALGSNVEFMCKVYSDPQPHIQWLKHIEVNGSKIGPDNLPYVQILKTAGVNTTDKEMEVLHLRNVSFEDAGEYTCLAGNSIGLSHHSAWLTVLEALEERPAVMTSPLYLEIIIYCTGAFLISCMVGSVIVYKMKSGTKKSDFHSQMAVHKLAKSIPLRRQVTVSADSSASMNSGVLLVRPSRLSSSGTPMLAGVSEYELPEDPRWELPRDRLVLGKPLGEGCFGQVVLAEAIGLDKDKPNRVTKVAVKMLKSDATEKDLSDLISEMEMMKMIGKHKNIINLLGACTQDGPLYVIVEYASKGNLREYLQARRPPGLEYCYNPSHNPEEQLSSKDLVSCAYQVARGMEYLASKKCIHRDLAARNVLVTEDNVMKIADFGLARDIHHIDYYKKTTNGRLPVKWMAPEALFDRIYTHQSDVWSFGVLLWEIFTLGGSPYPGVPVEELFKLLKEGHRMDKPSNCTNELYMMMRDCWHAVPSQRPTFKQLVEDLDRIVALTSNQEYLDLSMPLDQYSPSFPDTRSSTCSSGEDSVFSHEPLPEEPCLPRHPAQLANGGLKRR

[32] = test system: MDA-MB-468; assay: Cytotoxicity against human MDA-MB-468 cells assessed as cell growth inhibition after 48 hrs by MTT assay; assay type: functional; details: MDA-MB-468, 48 h

Cc1cc(=O)c2c(O)cc(O)c([C@H]3CCN(C)C[C@H]3O)c2o1 [ROHITUKINE]
Activity [1]: 47% | Activity [2]: 52% | Activity [3]: 73% | Activity [4]: 84% | Activity [5]: 45% | GI50 [6]: 24 µM | Activity [7]: 79% | GI50 [8]: 20 µM | Activity [9]: 12% | Stability [10]: Stable | Activity [11]: 65% | Activity [12]: 43% | GI50 [13]: 24 µM | Activity [14]: 50% | Activity [15]: 76% | inhibition [16]: 75% | Activity [17]: 23% | Activity [18]: 93% | solubility thermodynamic [19]: 16.9 mg/mL (≈ 55.5 mM) | GI50 at 48 h [20]: > 50 µM | Activity [21]: 118% | Activity [22]: 19% | Activity [23]: 107% | Activity [24]: 69% | Activity [25]: 78% | Activity [26]: 58% | Activity [27]: 79% | Activity [28]: 27% | Activity [29]: 53% | Activity [30]: 38% | Activity [31]: 66% | GI50 [32]: 17 µM
